Measured values as given in the NIST ThermoML archive (doi:10.1021/je500696p).
Numbers after ± are expanded uncertainties.

Key:
[1] = xn = mol fraction of the nth substance listed; settings: 100 kPa, Liquid, Vibrating tube method
[2] = excess molar enthalpy (molar enthalpy of mixing); xn = mol fraction of the nth substance listed; settings: 100 kPa, Liquid, Calvet calorimetry

CCCC[N+](C)(C)C.O=S(=O)([N-]S(=O)(=O)C(F)(F)F)C(F)(F)F [butyltrimethylammonium bis(trifluoromethylsulfonyl)imide] + CN(C)C=O
Settings	excess molar enthalpy [kcal/mol]	mass density [kg/m3]
[1], 293.15 K, x2 = 0	–	1397.1 ± 4.2
[1], 293.15 K, x2 = 0.1268	–	1379.7 ± 4.2
[1], 293.15 K, x2 = 0.2011	–	1367.7 ± 4.1
[1], 293.15 K, x2 = 0.3028	–	1348.7 ± 4.1
[1], 293.15 K, x2 = 0.3824	–	1331.3 ± 4
[1], 293.15 K, x2 = 0.5078	–	1297.4 ± 3.9
[1], 293.15 K, x2 = 0.6249	–	1255.8 ± 3.8
[1], 293.15 K, x2 = 0.7548	–	1191.6 ± 3.6
[1], 293.15 K, x2 = 0.8764	–	1101.3 ± 3.3
[1], 293.15 K, x2 = 0.9157	–	1061.9 ± 3.2
[1], 295.15 K, x2 = 0	–	1395.3 ± 4.2
[1], 295.15 K, x2 = 0.1268	–	1377.9 ± 4.2
[1], 295.15 K, x2 = 0.2011	–	1365.9 ± 4.1
[1], 295.15 K, x2 = 0.3028	–	1346.9 ± 4.1
[1], 295.15 K, x2 = 0.3824	–	1329.5 ± 4
[1], 295.15 K, x2 = 0.5078	–	1295.6 ± 3.9
[1], 295.15 K, x2 = 0.6249	–	1253.9 ± 3.8
[1], 295.15 K, x2 = 0.7548	–	1189.7 ± 3.6
[1], 295.15 K, x2 = 0.8764	–	1099.4 ± 3.3
[1], 295.15 K, x2 = 0.9157	–	1060 ± 3.2
[1], 298.15 K, x2 = 0	–	1392.7 ± 4.2
[1], 298.15 K, x2 = 0.1268	–	1375.3 ± 4.2
[1], 298.15 K, x2 = 0.2011	–	1363.2 ± 4.1
[1], 298.15 K, x2 = 0.3028	–	1344.2 ± 4
[1], 298.15 K, x2 = 0.3824	–	1326.8 ± 4
[1], 298.15 K, x2 = 0.5078	–	1292.8 ± 3.9
[1], 298.15 K, x2 = 0.6249	–	1251.2 ± 3.8
[1], 298.15 K, x2 = 0.7548	–	1186.8 ± 3.6
[1], 298.15 K, x2 = 0.8764	–	1096.5 ± 3.3
[1], 298.15 K, x2 = 0.9157	–	1057.1 ± 3.2
[1], 303.15 K, x2 = 0	–	1388.3 ± 4.2
[1], 303.15 K, x2 = 0.1268	–	1370.8 ± 4.1
[1], 303.15 K, x2 = 0.2011	–	1358.8 ± 4.1
[1], 303.15 K, x2 = 0.3028	–	1339.7 ± 4
[1], 303.15 K, x2 = 0.3824	–	1322.2 ± 4
[1], 303.15 K, x2 = 0.5078	–	1288.2 ± 3.9
[1], 303.15 K, x2 = 0.6249	–	1246.5 ± 3.7
[1], 303.15 K, x2 = 0.7548	–	1182.1 ± 3.6
[1], 303.15 K, x2 = 0.8764	–	1091.8 ± 3.3
[1], 303.15 K, x2 = 0.9157	–	1052.4 ± 3.2
[1], 308.15 K, x2 = 0	–	1384 ± 4.2
[1], 308.15 K, x2 = 0.1268	–	1366.4 ± 4.1
[1], 308.15 K, x2 = 0.2011	–	1354.3 ± 4.1
[1], 308.15 K, x2 = 0.3028	–	1335.2 ± 4
[1], 308.15 K, x2 = 0.3824	–	1317.7 ± 4
[1], 308.15 K, x2 = 0.5078	–	1283.6 ± 3.9
[1], 308.15 K, x2 = 0.6249	–	1241.8 ± 3.7
[1], 308.15 K, x2 = 0.7548	–	1177.4 ± 3.5
[1], 308.15 K, x2 = 0.8764	–	1087 ± 3.3
[1], 308.15 K, x2 = 0.9157	–	1047.6 ± 3.1
[1], 313.15 K, x2 = 0	–	1379.6 ± 4.2
[1], 313.15 K, x2 = 0.1268	–	1362 ± 4.1
[1], 313.15 K, x2 = 0.2011	–	1349.9 ± 4.1
[1], 313.15 K, x2 = 0.3028	–	1330.7 ± 4
[1], 313.15 K, x2 = 0.3824	–	1313.1 ± 4
[1], 313.15 K, x2 = 0.5078	–	1279 ± 3.8
[1], 313.15 K, x2 = 0.6249	–	1237.2 ± 3.7
[1], 313.15 K, x2 = 0.7548	–	1172.7 ± 3.5
[1], 313.15 K, x2 = 0.8764	–	1082.3 ± 3.3
[1], 313.15 K, x2 = 0.9157	–	1042.8 ± 3.1
[1], 318.15 K, x2 = 0	–	1375.2 ± 4.2
[1], 318.15 K, x2 = 0.1268	–	1357.6 ± 4.1
[1], 318.15 K, x2 = 0.2011	–	1345.4 ± 4.1
[1], 318.15 K, x2 = 0.3028	–	1326.2 ± 4
[1], 318.15 K, x2 = 0.3824	–	1308.6 ± 3.9
[1], 318.15 K, x2 = 0.5078	–	1274.5 ± 3.8
[1], 318.15 K, x2 = 0.6249	–	1232.6 ± 3.7
[1], 318.15 K, x2 = 0.7548	–	1168 ± 3.5
[1], 318.15 K, x2 = 0.8764	–	1077.5 ± 3.2
[1], 318.15 K, x2 = 0.9157	–	1038.1 ± 3.1
[1], 323.15 K, x2 = 0	–	1370.9 ± 4.1
[1], 323.15 K, x2 = 0.1268	–	1353.2 ± 4.1
[1], 323.15 K, x2 = 0.2011	–	1341 ± 4
[1], 323.15 K, x2 = 0.3028	–	1321.8 ± 4
[1], 323.15 K, x2 = 0.3824	–	1304.1 ± 3.9
[1], 323.15 K, x2 = 0.5078	–	1269.9 ± 3.8
[1], 323.15 K, x2 = 0.6249	–	1227.9 ± 3.7
[1], 323.15 K, x2 = 0.7548	–	1163.3 ± 3.5
[1], 323.15 K, x2 = 0.8764	–	1072.8 ± 3.2
[1], 323.15 K, x2 = 0.9157	–	1033.3 ± 3.1
[1], 328.15 K, x2 = 0	–	1366.6 ± 4.1
[1], 328.15 K, x2 = 0.1268	–	1348.8 ± 4.1
[1], 328.15 K, x2 = 0.2011	–	1336.6 ± 4
[1], 328.15 K, x2 = 0.3028	–	1317.3 ± 4
[1], 328.15 K, x2 = 0.3824	–	1299.7 ± 3.9
[1], 328.15 K, x2 = 0.5078	–	1265.4 ± 3.8
[1], 328.15 K, x2 = 0.6249	–	1223.3 ± 3.7
[1], 328.15 K, x2 = 0.7548	–	1158.6 ± 3.5
[1], 328.15 K, x2 = 0.8764	–	1068 ± 3.2
[1], 328.15 K, x2 = 0.9157	–	1028.6 ± 3.1
[1], 333.15 K, x2 = 0	–	1362.3 ± 4.1
[1], 333.15 K, x2 = 0.1268	–	1344.5 ± 4.1
[1], 333.15 K, x2 = 0.2011	–	1332.3 ± 4
[1], 333.15 K, x2 = 0.3028	–	1312.9 ± 4
[1], 333.15 K, x2 = 0.3824	–	1295.2 ± 3.9
[1], 333.15 K, x2 = 0.5078	–	1260.8 ± 3.8
[1], 333.15 K, x2 = 0.6249	–	1218.7 ± 3.7
[1], 333.15 K, x2 = 0.7548	–	1153.9 ± 3.5
[1], 333.15 K, x2 = 0.8764	–	1063.3 ± 3.2
[1], 333.15 K, x2 = 0.9157	–	1023.8 ± 3.1
[2], 308.15 K, x2 = 0.1285	-0.0987 ± 0.00406	–
[2], 308.15 K, x2 = 0.2488	-0.167 ± 0.00693	–
[2], 308.15 K, x2 = 0.2496	-0.168 ± 0.00693	–
[2], 308.15 K, x2 = 0.2543	-0.168 ± 0.00693	–
[2], 308.15 K, x2 = 0.3983	-0.232 ± 0.00956	–
[2], 308.15 K, x2 = 0.5182	-0.272 ± 0.011	–
[2], 308.15 K, x2 = 0.5211	-0.272 ± 0.011	–
[2], 308.15 K, x2 = 0.6283	-0.284 ± 0.0115	–
[2], 308.15 K, x2 = 0.7679	-0.253 ± 0.0103	–
[2], 308.15 K, x2 = 0.889	-0.162 ± 0.00669	–
[2], 313.15 K, x2 = 0.1226	-0.0961 ± 0.00382	–
[2], 313.15 K, x2 = 0.2487	-0.167 ± 0.00693	–
[2], 313.15 K, x2 = 0.261	-0.174 ± 0.00717	–
[2], 313.15 K, x2 = 0.3939	-0.232 ± 0.00932	–
[2], 313.15 K, x2 = 0.5209	-0.273 ± 0.0112	–
[2], 313.15 K, x2 = 0.5249	-0.275 ± 0.0112	–
[2], 313.15 K, x2 = 0.625	-0.286 ± 0.0117	–
[2], 313.15 K, x2 = 0.7717	-0.247 ± 0.01	–
[2], 313.15 K, x2 = 0.8796	-0.174 ± 0.00717	–
[2], 323.15 K, x2 = 0.129	-0.102 ± 0.00406	–
[2], 323.15 K, x2 = 0.2459	-0.169 ± 0.00693	–
[2], 323.15 K, x2 = 0.2473	-0.169 ± 0.00693	–
[2], 323.15 K, x2 = 0.3807	-0.229 ± 0.00932	–
[2], 323.15 K, x2 = 0.5174	-0.278 ± 0.0112	–
[2], 323.15 K, x2 = 0.5224	-0.279 ± 0.0115	–
[2], 323.15 K, x2 = 0.6286	-0.291 ± 0.012	–
[2], 323.15 K, x2 = 0.7693	-0.26 ± 0.0105	–
[2], 323.15 K, x2 = 0.8804	-0.176 ± 0.00717	–
